The source of these data is US20240366589A1, “NHE3-BINDING COMPOUNDS AND METHODS FOR INHIBITING PHOSPHATE TRANSPORT” (Ardelyx, Inc., priority 2013, published 2024).

In assay [1] the target is T1, NHE-2 (Rattus norvegicus, UniProt P48763).
T1 sequence (P48763 1-813): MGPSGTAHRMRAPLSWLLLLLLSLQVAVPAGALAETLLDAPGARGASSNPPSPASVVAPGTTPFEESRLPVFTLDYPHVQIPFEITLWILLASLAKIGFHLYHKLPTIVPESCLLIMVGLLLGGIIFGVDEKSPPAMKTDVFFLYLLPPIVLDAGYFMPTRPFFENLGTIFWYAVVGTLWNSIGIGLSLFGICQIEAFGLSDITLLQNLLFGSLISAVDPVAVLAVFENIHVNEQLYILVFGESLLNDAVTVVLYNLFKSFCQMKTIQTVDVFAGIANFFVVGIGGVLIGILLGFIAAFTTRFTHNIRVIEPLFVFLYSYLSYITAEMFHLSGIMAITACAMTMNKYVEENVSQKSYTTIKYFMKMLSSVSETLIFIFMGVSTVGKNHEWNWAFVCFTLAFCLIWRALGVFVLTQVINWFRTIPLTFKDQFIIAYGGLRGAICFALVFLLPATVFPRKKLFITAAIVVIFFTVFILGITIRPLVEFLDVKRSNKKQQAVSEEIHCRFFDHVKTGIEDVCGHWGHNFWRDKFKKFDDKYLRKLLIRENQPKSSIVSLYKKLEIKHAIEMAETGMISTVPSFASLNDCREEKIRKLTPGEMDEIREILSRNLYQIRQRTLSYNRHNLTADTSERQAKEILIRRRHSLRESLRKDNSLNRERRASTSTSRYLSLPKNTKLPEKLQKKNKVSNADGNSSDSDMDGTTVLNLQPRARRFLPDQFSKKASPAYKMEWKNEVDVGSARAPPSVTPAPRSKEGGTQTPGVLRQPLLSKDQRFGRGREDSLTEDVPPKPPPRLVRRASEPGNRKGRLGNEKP
The conditions noted are these: * = from rat; read-out: IC50 or Ki NHE-2; cited from earlier work.

For assay [2], the target named is NHE-1 (Homo sapiens, UniProt P19634). In words: NHE isoform inhibition, Table 2 adapted from Masereel et al.: NHE-1, species not marked. Type of assay: biochemical. The settings on record: from Table 2 values. An excerpt:
Shown below are examples of various NHE binding small molecules and their selectivity across the NHE-1, -2 and -3 isoforms. (See, e.g., B. Masereel et al., An Overview of Inhibitors of Na+/H+ Exchanger, European J. of Med. Chem., 38, pp. 547-554 (2003), the entire contents of which is incorporated by reference here for all relevant and consistent purposes). […] It is thus possible to engineer NHE3 binding selectivity into a chemical series optimized for potency against another antiporter isoform; that is, the inhibitor classes exemplified in the art may be suitably modified for activity and selectivity against NHE3 (or alternatively NHE-2 and/or NHE-8), as well as being optionally modified to be rendered substantially impermeable or substantially systemically non-bioavailable.

SMILES strings stand for the structures.

In general, IC50 refers to the concentration that gives 50% inhibition.

Chain of NHE-1 (P19634 whole entry, species assumed, canonical isoform): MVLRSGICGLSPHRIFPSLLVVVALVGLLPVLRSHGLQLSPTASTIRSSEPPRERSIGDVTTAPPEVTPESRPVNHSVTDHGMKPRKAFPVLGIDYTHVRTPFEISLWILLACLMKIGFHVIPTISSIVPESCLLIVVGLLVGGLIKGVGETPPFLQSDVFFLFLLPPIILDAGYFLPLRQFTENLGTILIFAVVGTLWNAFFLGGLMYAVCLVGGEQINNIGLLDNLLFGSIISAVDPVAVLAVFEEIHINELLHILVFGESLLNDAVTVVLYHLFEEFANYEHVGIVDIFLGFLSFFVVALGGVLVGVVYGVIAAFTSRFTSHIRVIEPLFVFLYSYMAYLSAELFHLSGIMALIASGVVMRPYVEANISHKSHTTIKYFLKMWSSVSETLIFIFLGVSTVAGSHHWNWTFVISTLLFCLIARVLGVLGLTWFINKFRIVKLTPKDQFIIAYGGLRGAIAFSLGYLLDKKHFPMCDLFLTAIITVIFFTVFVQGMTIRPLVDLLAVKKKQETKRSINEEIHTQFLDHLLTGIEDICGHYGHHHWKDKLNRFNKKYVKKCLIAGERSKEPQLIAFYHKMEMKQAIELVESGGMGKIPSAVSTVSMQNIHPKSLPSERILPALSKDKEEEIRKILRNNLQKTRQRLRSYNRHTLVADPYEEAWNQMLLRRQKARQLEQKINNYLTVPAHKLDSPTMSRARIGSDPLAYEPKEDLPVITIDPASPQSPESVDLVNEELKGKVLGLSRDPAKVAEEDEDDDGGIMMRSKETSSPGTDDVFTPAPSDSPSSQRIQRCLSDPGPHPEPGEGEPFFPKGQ

For `CCN(c1nc(N)c(C(=O)NC(=N)N)nc1Cl)C(C)C` [EIPA, ethyl isopropyl amiloride], the IC50 in assay [1] was 80 nM.
Regarding `C/C(=C\c1cc(C)ccc1/C=C(\C)C(=O)NC(=N)N)C(=O)N=C(N)N` [S-3226], the “selectivity: more active against NHE-1 than NHE3” value in assay [2] is “selectivity is reversed”.
The same measure, in the same setting: as for `C/C(=C\c1cccc(/C=C(\C)C(=O)NC(=N)N)c1)C(=O)N=C(N)N` [S-2120], the entry is “over 500 fold”.
